Test results from patent US11160279B2, “Method of controlling herbicide resistant weeds” (Sumitomo Chemical Company, Limited, priority 2018, dated 2021).

Legend:
Assay type in all cases: in vivo
[1] = test system: Amaranthus palmeri having an Arg128Met mutation in PPO2; assay: Foliar treatment 21 days after sowing weed and soybean, greenhouse pot test (Example 3); settings: 10, 20, 40, or 80 g/ha foliar treatment 21 days after sowing, 200 L/ha aqueous dilution; examined 14 days after the treatment
Description: Amaranthus palmeri having an Arg128Met mutation in PPO2 and soybean are sown in a plastic pot. Then, the weeds and soybean are cultivated in a greenhouse. A compound X is applied in an amount of 10, 20, 40, or 80 g/ha by spraying 200 L/ha of an aqueous dilution containing the compound X to perform foliar treatment 21 days after the sowing. Then, the weeds and soybean are cultivated in a greenhouse to examine the effects on the weeds and phytotoxic effects on soybean 14 days after the treatment.

[2] = test system: Amaranthus palmeri having an Arg128Met mutation in PPO2; assay: Soil surface treatment on the day the weed is sown, soybean sown 7 days later, greenhouse pot test (Example 1); settings: 10, 20, 40, or 80 g/ha applied to soil surface, 200 L/ha aqueous dilution; soybean sown after 7 days; examined after 14 days
Description: Amaranthus palmeri having an Arg128Met mutation in PPO2 is sown in a plastic pot. On the same day, a compound X is applied to the surface of soil in an amount of 10, 20, 40, or 80 g/ha by spraying 200 L/ha of an aqueous dilution containing the compound X. Then, the weeds are cultivated in a greenhouse and soybean seeds are sown after 7 days, to examine the effects on the weeds and phytotoxic effects on soybean after 14 days.

[3] = test system: Amaranthus palmeri having an Arg128Met mutation in PPO2; assay: Soil surface treatment on the day weed and soybean are sown, greenhouse pot test (Example 2); settings: 10, 20, 40, or 80 g/ha applied to soil surface on day of sowing, 200 L/ha aqueous dilution; examined after 21 days
Description: Amaranthus palmeri having an Arg128Met mutation in PPO2 and soybean are sown in a plastic pot. On the same day, a compound X is applied to the surface of soil in an amount of 10, 20, 40, or 80 g/ha by spraying 200 L/ha of an aqueous dilution containing the compound X. Then, the weeds and soybean are cultivated in a greenhouse to examine the effects on the weeds and phytotoxic effects on soybean after 21 days.

Measured: effects on the weeds (herbicidal effect)

CCOC(=O)COc1ncccc1Oc1cc(-n2c(=O)cc(C(F)(F)F)n(C)c2=O)c(F)cc1Cl [compound X, Ethyl [3-[2-chloro-4-fluoro-5-(1-methyl-6-trifluoromethyl-2,4-dioxo-1,2,3,4-tetrahydropyrimidine-3-yl)phenoxy]-2-pyridyloxy]acetate]
valuable effect: all assays above
